The source of these data is patent publication US20260015350A1, “AZAQUINAZOLINE PAN-KRAS INHIBITORS” (Mirati Therapeutics, Inc., priority 2022, published 2026).

As a reminder, the IC50 is the concentration that gives 50% inhibition. Lower therefore signals greater potency in that assay.

One assay deals with T1, KRas^G12R (Homo sapiens, UniProt P01116, G12R).
T1 construct: Biotinylated KRas (corresponding to amino acids 1-169, produced at Accelegan Inc.); biotin (biotinylated); purchased Accelegan Inc
The assay is described as follows: KRas binding assay (TR-FRET tracer displacement), KRas G12R.

A further assay addresses T2, KRas^G12V (Homo sapiens, UniProt P01116, G12V).
T2 construct: Biotinylated KRas (corresponding to amino acids 1-169, produced at Accelegan Inc.); biotin (biotinylated); purchased Accelegan Inc
As to the kind of experiment: KRas binding assay (TR-FRET tracer displacement), KRas G12V. On the technique in general: Time-resolved FRET reads energy transfer from a long-lived donor to a nearby acceptor.

Another assay deals with T3, KRas^G12D (Homo sapiens, UniProt P01116, G12D).
T3 construct: Biotinylated KRas (corresponding to amino acids 1-169, produced at Accelegan Inc.); biotin (biotinylated); purchased Accelegan Inc
The assay is described as follows: KRas binding assay (TR-FRET tracer displacement), KRas G12D.

The test system of assay [1] is KRas-mediated phosphorylation of ERK in AsPC-1 cells. The assay is described as follows: Inhibition of KRas-mediated phosphorylation of ERK (Cisbio HTRF pERK), AsPC-1 cells. Type of assay: cell-based. Conditions: Homo sapiens, ASPC1, AsPC-1 cells; HTRF pERK. The method, then: (§1) Inhibition of KRas Phosphorylation of ERK (HTRF) by Exemplary Compounds of Formula (I) Cisbio HTRF Advanced PERK Assay Catalog #64[…] […] Add 10 mL of media to stop trypsinizing. Pipette the cells into a conical bottom 50 mL centrifuge tube and centrifuge 5 min×1000 rpm. […] Re-suspend the cell pellet in media, take a cell count, and then adjust the cell density using fresh media. […] Seed 6,000 cells into cell culture plate with 50 μL media. […] Use Tecan to complete the compound addition. Compounds start from 10 uM top, 3-fold dilution, and 10 doses. The final DMSO concentration is 0.8%. Dispensed 0.2 uM Trametinib as Min control. […] Incubate cell plate for 3 hrs in the incubator. […] Dilute 1 volume of 4× lysis buffer with 3 volumes of deionized water. […] Keep lysis buffer on the ice. […] At the end of the compound treatment, flick-off the media. […] Add 35 μL of lysis buffer per well using a Multidrop Combi. Then place on a plate agitator shaking at 300 rpm at 4° C. for 40 mins. […] Make up the HTRF antibody buffer. For each assay plate, mix 50 μL of d2-conjugate antibody with 950 μL of detection buffer. Similarly, mix 50 μL of Cryptate antibody with 950 μL of detection buffer. Then mix the two diluted antibodies together. […] Dispense 3.4 μL the antibody buffer to wells of an empty assay plate. Seal the plate and centrifuge plate 30 sec×1000 rpm. […] At the end of the 4° C. lysis, centrifuge the lysate plates 3 mins×1500 rpm. […] Use the Bravo to transfer 13.6 μL of lysate from cell culture plate to assay plate. Then incubate assay plate for 2 hrs at room temperature. 8. At the end of incubation, read plate on the Envision after centrifuging plate 30 sec×1000 rpm.

For assay [2], the system named is KRas-mediated phosphorylation of ERK in H727 cells. The assay is described as follows: Inhibition of KRas-mediated phosphorylation of ERK (Cisbio HTRF pERK), H727 cells. Type of assay: cell-based. The conditions noted are these: Homo sapiens, NCI-H727, H727 cells; HTRF pERK. The method, then: as §1

T2 sequence (P01116 1-169 isoform P01116-2 G12V): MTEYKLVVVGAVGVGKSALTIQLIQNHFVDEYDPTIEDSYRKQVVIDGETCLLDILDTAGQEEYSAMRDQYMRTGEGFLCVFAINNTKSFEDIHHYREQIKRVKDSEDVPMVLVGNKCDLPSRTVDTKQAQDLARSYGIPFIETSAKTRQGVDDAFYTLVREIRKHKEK
T3 sequence (P01116 1-169 isoform P01116-2 G12D): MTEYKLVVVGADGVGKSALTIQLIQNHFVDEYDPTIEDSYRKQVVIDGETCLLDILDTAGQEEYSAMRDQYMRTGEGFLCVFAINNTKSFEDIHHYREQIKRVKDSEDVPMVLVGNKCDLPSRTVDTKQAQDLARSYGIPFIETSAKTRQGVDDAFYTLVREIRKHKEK
T1 sequence (P01116 1-169 isoform P01116-2 G12R): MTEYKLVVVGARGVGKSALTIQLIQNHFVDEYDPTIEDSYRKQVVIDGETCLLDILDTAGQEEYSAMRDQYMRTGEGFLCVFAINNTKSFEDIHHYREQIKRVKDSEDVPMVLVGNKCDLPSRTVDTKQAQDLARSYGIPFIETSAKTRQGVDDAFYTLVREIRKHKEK

Turning to `CCc1cccc2cccc(-c3ncc4c(C5CCCOCC5)nc(OCC56CCCN5CCC6)nc4c3F)c12` (racemic) [Example 723, rac-(R)-7-(8-ethylnaphthalen-1-yl)-8-fluoro-4-(oxepan-4-yl)-2-((tetrahydro-1H-pyrrolizin-7a(5H)-yl)methoxy)pyrido[4,3-d]pyrimidine], the 50% inhibitory concentration (IC50) on KRas^G12R is 27500 nM; on KRas^G12V, 42800 nM; on KRas^G12D it was above 100000 nM.
The corresponding values for `Fc1c(-c2cccc3cccc(F)c23)ncc2c(C3=CCCCC3)nc(OCC34CCCN3CCC4)nc12` [Example 524, 4-(cyclohex-1-en-1-yl)-8-fluoro-7-(8-fluoronaphthalen-1-yl)-2-((hexahydro-1H-pyrrolizin-7a-yl)methoxy)pyrido[4,3-d]pyrimidine] are above 100000 nM, 70900 nM and above 100000 nM.
Taken in the same sequence, the figures for `CCc1c(F)ccc2cc(O)cc(-c3ncc4c(CCc5ccnn5C)nc(OC[C@@]56CCCN5C[C@H](F)C6)nc4c3F)c12` [Example 545, 5-ethyl-6-fluoro-4-(8-fluoro-2-(((2R,7aS)-2-fluorotetrahydro-1H-pyrrolizin-7a(5H)-yl)methoxy)-4-(2-(1-methyl-1H-pyrazol-5-yl)ethyl)pyrido[4,3-d]pyrimidin-7-yl)naphthalen-2-ol] were 656 nM, 431 nM and 4970 nM.
With `CCc1c(F)ccc2cc(O)cc(-c3ncc4c(N5CCCC(C6CCNC6=O)C5)nc(OC[C@@]56CCCN5C[C@H](F)C6)nc4c3F)c12` (stereo partly drawn) [Example 616, 3-(1-(7-(8-ethyl-7-fluoro-3-hydroxynaphthalen-1-yl)-8-fluoro-2-(((2R,7aS)-2-fluorohexahydro-1H-pyrrolizin-7a-yl)methoxy)pyrido[4,3-d]pyrimidin-4-yl)piperidin-3-yl)pyrrolidin-2-one], the values for the IC50 in assay [1] and in assay [2] were 3620 nM and 1140 nM, respectively.
Taken in the same sequence, the figures for `CCc1c(F)ccc2cc(O)cc(-c3ncc4c(N5CC6OCCN(C(C)=O)C6C5)nc(OC[C@@]56CCCN5C[C@H](F)C6)nc4c3F)c12` (stereo partly drawn) [Example 623, 1-(6-(7-(8-ethyl-7-fluoro-3-hydroxynaphthalen-1-yl)-8-fluoro-2-(((2R,7aS)-2-fluorotetrahydro-1H-pyrrolizin-7a(5H)-yl)methoxy)pyrido[4,3-d]pyrimidin-4-yl)hexahydropyrrolo[3,4-b][1,4]oxazin-4(4aH)-yl) ethan-1-one] were above 10000 nM and above 10000 nM.
As for `CCc1c(F)ccc2cc(O)cc(-c3ncc4c(NCc5c[nH]nc5NC(=O)C5COC5)nc(OC[C@@]56CCCN5C[C@H](F)C6)nc4c3F)c12` [Example 649, N-(4-(((7-(8-ethyl-7-fluoro-3-hydroxynaphthalen-1-yl)-8-fluoro-2-(((2R,7aS)-2-fluorohexahydro-1H-pyrrolizin-7a-yl)methoxy)pyrido[4,3-d]pyrimidin-4-yl)amino)methyl)-1H-pyrazol-3-yl) oxetane-3-carboxamide], the IC50 on KRas^G12R was determined as 38 nM; on KRas^G12V it was 9 nM; on KRas^G12D, 85 nM.
`CCc1c(F)ccc2cc(O)cc(-c3ncc4c(NCc5cc(C(=O)N(C)C)n(CC#N)n5)nc(OC[C@@]56CCCN5C[C@H](F)C6)nc4c3F)c12` [Example 658, 1-(cyanomethyl)-3-(((7-(8-ethyl-7-fluoro-3-hydroxynaphthalen-1-yl)-8-fluoro-2-(((2R,7aS)-2-fluorotetrahydro-1H-pyrrolizin-7a(5H)-yl)methoxy)pyrido[4,3-d]pyrimidin-4-yl)amino)methyl)-N,N-dimethyl-1H-pyrazole-5-carboxamide]: the IC50 came out at 65 nM at KRas^G12R, 7 nM on KRas^G12V and 224 nM at KRas^G12D.
With `CCc1c(F)ccc2cc(O)cc(-c3ncc4c(NCc5cc(C(=O)N(C)C)nn5CCC#N)nc(OC[C@@]56CCCN5C[C@H](F)C6)nc4c3F)c12` [Example 669, 1-(2-cyanoethyl)-5-(((7-(8-ethyl-7-fluoro-3-hydroxynaphthalen-1-yl)-8-fluoro-2-(((2R,7aS)-2-fluorohexahydro-1H-pyrrolizin-7a-yl)methoxy)pyrido[4,3-d]pyrimidin-4-yl)amino)methyl)-N,N-dimethyl-1H-pyrazole-3-carboxamide], the 50% inhibitory concentration (IC50) in assay [1] was above 10000 nM; in assay [2] it was 4510 nM.
Taken in the same sequence, the figures for `CCc1c(F)ccc2cc(O)cc(-c3ncc4c(NCc5cc(C(=O)N(C)C)nn5CC5COC5)nc(OC[C@@]56CCCN5C[C@H](F)C6)nc4c3F)c12` [Example 683, 5-(((7-(8-ethyl-7-fluoro-3-hydroxynaphthalen-1-yl)-8-fluoro-2-(((2R,7aS)-2-fluorohexahydro-1H-pyrrolizin-7a-yl)methoxy)pyrido[4,3-d]pyrimidin-4-yl)amino)methyl)-N,N-dimethyl-1-(oxetan-3-ylmethyl)-1H-pyrazole-3-carboxamide] were above 10000 nM and above 10000 nM.
The corresponding values for `CCc1c(F)ccc2cc(O)cc(-c3ncc4c(NCc5cc(C(=O)N(C)C)n(CC6COC6)n5)nc(OC[C@@]56CCCN5C[C@H](F)C6)nc4c3F)c12` [Example 684A, 3-(((7-(8-ethyl-7-fluoro-3-hydroxynaphthalen-1-yl)-8-fluoro-2-(((2R,7aS)-2-fluorohexahydro-1H-pyrrolizin-7a-yl)methoxy)pyrido[4,3-d]pyrimidin-4-yl)amino)methyl)-N,N-dimethyl-1-(oxetan-3-ylmethyl)-1H-pyrazole-5-carboxamide] are above 10000 nM and above 10000 nM.
Taken in the same sequence, the figures for `CCc1c(F)ccc2cc(O)cc(-c3ncc4c(NCc5cc(C(=O)N(C)C)n(C6CS(=O)(=O)C6)n5)nc(OC[C@@]56CCCN5C[C@H](F)C6)nc4c3F)c12` [Example 692, 1-(1,1-dioxidothietan-3-yl)-3-(((7-(8-ethyl-7-fluoro-3-hydroxynaphthalen-1-yl)-8-fluoro-2-(((2R,7aS)-2-fluorohexahydro-1H-pyrrolizin-7a-yl)methoxy)pyrido[4,3-d]pyrimidin-4-yl)amino)methyl)-N,N-dimethyl-1H-pyrazole-5-carboxamide] were above 10000 nM and 7030 nM.
With `CCc1cccc2cccc(-c3ncc4c(C5CCCCC5)nc(OCC56CCCN5CCC6)nc4c3F)c12` [Example 722, 4-cyclohexyl-7-(8-ethylnaphthalen-1-yl)-8-fluoro-2-((hexahydro-1H-pyrrolizin-7a-yl)methoxy)pyrido[4,3-d]pyrimidine], the values for the IC50 on KRas^G12R, at KRas^G12V and on KRas^G12D were 30000 nM, 42900 nM and above 100000 nM, respectively.
For the molecule `CCc1c(F)ccc2cccc(-c3ncc4c(N5C[C@@H]6C[C@H](C5)[C@H](O)C6)nc(OC[C@@]56CCCN5C[C@H](F)C6)nc4c3F)c12` [Example 754, (1R,5R,6R)-3-(7-(8-ethyl-7-fluoronaphthalen-1-yl)-8-fluoro-2-(((2R,7aS)-2-fluorohexahydro-1H-pyrrolizin-7a-yl)methoxy)pyrido[4,3-d]pyrimidin-4-yl)-3-azabicyclo[3.2.1]octan-6-ol], the IC50 in assay [1] stood at 747 nM; in assay [2] it was 516 nM.
As to `CCc1c(F)ccc2cc(OC)cc(-c3ncc4c(N5C[C@@H]6C[C@H](C5)[C@H](O)C6)nc(OC[C@@]56CCCN5C[C@H](F)C6)nc4c3F)c12` [Example 777, (1R,5R,6R)-3-(7-(8-ethyl-7-fluoro-3-methoxynaphthalen-1-yl)-8-fluoro-2-(((2R,7aS)-2-fluorohexahydro-1H-pyrrolizin-7a-yl)methoxy)pyrido[4,3-d]pyrimidin-4-yl)-3-azabicyclo[3.2.1]octan-6-ol], the IC50 at KRas^G12R was determined as 1320 nM; at KRas^G12V it was 1050 nM; at KRas^G12D, 4190 nM.
